Measurements taken from patent US20260297060A1, “COMPOUNDS FOR THE DEGRADATION OF MUTANT BRAF” (C4 THERAPEUTICS, INC., priority 2023, published 2026).
Like-named read-outs stand apart in the source and are kept apart here.

Tests used:
[1] = target: T1, BRAF V600E (Homo sapiens, UniProt P15056+Q96SW2, V600E); assay: BRAF V600E HiBiT Degradation Assay; format: cell-based
T1 construct: knock-in of the HiBiT tag to the endogenous BRAF V600E locus; host or cells: A375.10 (A375 clonal line, CRISPR HiBiT knock-in at the endogenous BRAF V600E locus)
T1 sequence (P15056 whole entry V600E): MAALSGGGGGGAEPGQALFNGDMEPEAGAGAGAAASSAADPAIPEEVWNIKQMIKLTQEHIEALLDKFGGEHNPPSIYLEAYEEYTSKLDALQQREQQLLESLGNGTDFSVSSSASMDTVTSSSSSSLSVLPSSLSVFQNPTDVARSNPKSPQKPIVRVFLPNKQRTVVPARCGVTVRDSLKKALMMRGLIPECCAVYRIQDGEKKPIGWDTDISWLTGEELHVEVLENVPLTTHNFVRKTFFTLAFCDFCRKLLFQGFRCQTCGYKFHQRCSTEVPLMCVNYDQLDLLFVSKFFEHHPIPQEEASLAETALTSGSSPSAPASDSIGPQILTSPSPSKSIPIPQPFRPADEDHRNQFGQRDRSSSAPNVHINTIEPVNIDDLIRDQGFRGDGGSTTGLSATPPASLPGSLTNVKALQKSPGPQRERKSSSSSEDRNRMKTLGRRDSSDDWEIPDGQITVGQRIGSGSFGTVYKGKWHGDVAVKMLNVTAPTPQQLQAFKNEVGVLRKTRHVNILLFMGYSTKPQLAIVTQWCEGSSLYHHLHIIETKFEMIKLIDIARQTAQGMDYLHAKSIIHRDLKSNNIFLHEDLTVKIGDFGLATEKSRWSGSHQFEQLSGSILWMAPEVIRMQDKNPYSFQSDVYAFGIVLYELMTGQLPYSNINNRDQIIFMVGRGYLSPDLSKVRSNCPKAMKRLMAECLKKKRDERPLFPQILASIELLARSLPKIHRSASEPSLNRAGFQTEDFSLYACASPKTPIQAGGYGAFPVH
T1 sequence (Q96SW2 whole entry): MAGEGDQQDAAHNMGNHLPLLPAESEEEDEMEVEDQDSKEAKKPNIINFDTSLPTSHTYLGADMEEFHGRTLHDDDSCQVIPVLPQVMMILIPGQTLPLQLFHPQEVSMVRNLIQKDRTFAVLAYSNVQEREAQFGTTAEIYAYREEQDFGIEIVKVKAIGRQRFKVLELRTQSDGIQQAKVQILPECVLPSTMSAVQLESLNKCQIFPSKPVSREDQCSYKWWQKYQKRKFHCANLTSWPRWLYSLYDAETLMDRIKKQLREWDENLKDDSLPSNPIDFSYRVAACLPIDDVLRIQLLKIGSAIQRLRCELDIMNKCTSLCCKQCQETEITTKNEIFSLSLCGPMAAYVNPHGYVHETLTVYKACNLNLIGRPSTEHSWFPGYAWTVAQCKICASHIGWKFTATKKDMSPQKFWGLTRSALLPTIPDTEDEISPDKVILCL
T1 sequence (Q16531 whole entry partner): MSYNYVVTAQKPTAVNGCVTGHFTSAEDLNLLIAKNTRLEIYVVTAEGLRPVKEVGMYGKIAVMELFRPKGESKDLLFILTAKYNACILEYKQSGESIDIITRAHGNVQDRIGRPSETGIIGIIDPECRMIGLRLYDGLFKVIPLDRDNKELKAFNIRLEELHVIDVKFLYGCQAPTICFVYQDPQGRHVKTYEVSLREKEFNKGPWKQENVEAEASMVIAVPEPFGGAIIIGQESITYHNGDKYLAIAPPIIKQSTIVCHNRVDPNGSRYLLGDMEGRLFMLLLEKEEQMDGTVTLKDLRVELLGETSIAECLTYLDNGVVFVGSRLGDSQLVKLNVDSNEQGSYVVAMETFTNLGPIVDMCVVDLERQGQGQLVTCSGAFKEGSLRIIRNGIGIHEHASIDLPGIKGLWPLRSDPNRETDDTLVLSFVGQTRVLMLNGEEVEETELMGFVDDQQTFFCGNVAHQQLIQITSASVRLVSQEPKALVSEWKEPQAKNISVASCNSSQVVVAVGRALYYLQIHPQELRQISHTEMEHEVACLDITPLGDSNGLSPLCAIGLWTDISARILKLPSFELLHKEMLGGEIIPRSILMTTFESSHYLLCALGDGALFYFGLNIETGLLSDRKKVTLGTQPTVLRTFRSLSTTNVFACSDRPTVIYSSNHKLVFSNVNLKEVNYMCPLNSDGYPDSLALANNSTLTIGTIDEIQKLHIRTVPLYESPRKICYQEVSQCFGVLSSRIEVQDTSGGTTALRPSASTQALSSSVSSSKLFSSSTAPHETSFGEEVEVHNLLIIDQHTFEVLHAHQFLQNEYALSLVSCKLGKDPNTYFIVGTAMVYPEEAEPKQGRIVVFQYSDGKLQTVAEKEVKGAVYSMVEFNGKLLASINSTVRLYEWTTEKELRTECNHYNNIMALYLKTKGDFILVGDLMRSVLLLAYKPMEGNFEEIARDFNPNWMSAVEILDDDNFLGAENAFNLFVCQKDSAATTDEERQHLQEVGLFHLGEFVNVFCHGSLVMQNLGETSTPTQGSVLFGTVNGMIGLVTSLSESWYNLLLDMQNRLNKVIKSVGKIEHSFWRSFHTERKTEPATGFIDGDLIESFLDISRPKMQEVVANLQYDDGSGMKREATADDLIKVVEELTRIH
Outline: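 Endogenous HiBiT knock-in on BRAF V600E in A375 cells (clone A375.10); 11-point half-log series, top 10 μM, 2, 6 or 24 h at 37° C. Lytic HiBiT luminescence, background-subtracted, normalized to DMSO; 4-parameter fit gives DC50, Emax (residual protein) and IP (inflection point).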

[2] = tested on: A375-NRAS^Q61K cells; assay: CTGlo Cell Viability Assay, A375-NRAS^Q61K (A375.11) cells, 96 hours; format: cell-based, human; conditions: A375.11 (A375-NRAS^Q61K) cells; for Emax / CTGlo A375.11 96 hours Emax: lowest % viability achieved
Outline: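 A375 cells carrying BRAF V600E and NRAS Q61K were seeded at 250 cells/well with a 10-point half-log dose series (max 10 μM final). After 96 h at 37 °C, viability was read as ATP luminescence (CellTiter-Glo), background-subtracted and normalized to DMSO (100%). GI50 from 4-parameter fit; Emax is the lowest % viability.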

[3] = A375.10 cells, BRAF V600E, 2 hours, inflection point, read-out: HiBiT-Degradation A375.10 BRAF 2 hours IP
[4] = A375.10 cells, BRAF V600E, 2 hours, read-out: HiBiT-Degradation A375.10 BRAF 2 hours DC50
[5] = A375.10 cells, BRAF V600E, 2 hours, residual protein remaining, read-out: HiBiT-Degradation A375.10 BRAF 2 hours Emax
[6] = A375.10 cells, BRAF V600E, 2 hours, residual protein remaining

DC50 [1, 3] [nM] | DC50 [1, 4] [nM] | Emax [1, 5] [%] | GI50 ([2]; Homo sapiens, 96 h) [nM] | HiBiT-Degradation A375.10 BRAF 2 hours Emax [1] | GI50 [2] [nM] | HiBiT-Degradation A375.10 BRAF 2 hours Emax [1, 6] | Emax ([1]; read-out: HiBiT-Degradation A375.10 BRAF 2 hours Emax, A375.10 cells, BRAF V600E, 2 hours, residual protein remaining) [%] | SMILES | Emax ([2]; Homo sapiens, 96 h) [%] | CTGlo A375.11 96 hours Emax [2]
< 1000 | > 10000 | 50 to 90 | 1000 to 10000 | – | – | – | – | CN(CCO)S(=O)(=O)Nc1ccc(F)c(Oc2ccc3ncc([C@@H]4COC5(CCN(C6CCC(c7cc8c(cc7F)c(N7CCC(=O)NC7=O)nn8C)CC6F)CC5)C4)nc3c2)c1C#N (single isomer, unassigned) [Compound 172] | 50 to 90 | –
< 1000 | < 1000 | < 50 | < 1000 | – | – | – | – | CN(CCO)S(=O)(=O)Nc1ccc(F)c(Oc2ccc3ncc([C@@H]4COC5(CCN(C6CCC(c7cc8c(cc7F)c(N7CCC(=O)NC7=O)nn8C)CC6)CC5)C4)nc3c2)c1C#N (single isomer, unassigned) [Compound 174] | 50 to 90 | –
< 1000 | < 1000 | < 50 | < 1000 | – | – | – | – | CN(CCO)S(=O)(=O)Nc1ccc(F)c(Oc2ccc3ncc([C@H]4COC5(CCN(C6CCC(c7cc8c(cc7F)c(N7CCC(=O)NC7=O)nn8C)CC6)CC5)C4)nc3c2)c1C#N (single isomer, unassigned) [Compound 176] | 50 to 90 | –
< 1000 | < 1000 | – | – | ** (<90% and >50%) | 1000 to 10000 | – | – | CCN(C)S(=O)(=O)Nc1ccc(F)c(Oc2ccc3ncn(C4CC5(CCN(C6CCC(c7cc8c(cc7F)c(N7CCC(=O)NC7=O)nn8C)CC6)CC5)C4)c(=O)c3c2)c1F (single isomer, unassigned) [Compound 179, 3-[7-[4-[3-(2,4-dioxohexahydropyrimidin-1-yl)-5-fluoro-1-methyl-indazol-6-yl]cyclohexyl]-7-azaspiro[3.5]nonan-2-yl]-6-[3-[[ethyl(methyl)sulfamoyl]amino]-2,6-difluoro-phenoxy]-4-oxo-quinazoline] | – | ** (<90% and >50%)
< 1000 | < 1000 | – | – | *** (<=50%) | < 1000 | – | – | CCN(C)S(=O)(=O)Nc1ccc(F)c(Oc2ccc3ncc(C4CC5(CCN(C6CCC(c7cc8c(cc7F)c(N7CCC(=O)NC7=O)nn8C)CC6)CC5)C4)nc3c2)c1C#N (single isomer, unassigned) [Compound 181, 7-[2-cyano-3-[[ethyl(methyl)sulfamoyl]amino]-6-fluoro-phenoxy]-2-[7-[4-[3-(2,4-dioxohexahydropyrimidin-1-yl)-5-fluoro-1-methyl-indazol-6-yl]cyclohexyl]-7-azaspiro[3.5]nonan-2-yl]quinoxaline] | – | *** (<=50%)
< 1000 | < 1000 | – | – | – | 1000 to 10000 | *** (<=50%) | – | CCN(C)S(=O)(=O)Nc1ccc(F)c(C(=O)c2ccc3ncn(C4CC5(CCN(C6CCC(c7cc8c(cc7F)c(N7CCC(=O)NC7=O)nn8C)CC6)CC5)C4)c(=O)c3c2)c1F (single isomer, unassigned) [Compound 183, 3-[7-[4-[3-(2,4-dioxohexahydropyrimidin-1-yl)-5-fluoro-1-methyl-indazol-6-yl]cyclohexyl]-7-azaspiro[3.5]nonan-2-yl]-6-[3-[[ethyl(methyl)sulfamoyl]amino]-2,6-difluoro-benzoyl]-4-oxo-quinazoline] | – | ** (<90% and >50%)
< 1000 | > 10000 | – | – | – | > 10000 | ** (<90% and >50%) | – | CCN(C)S(=O)(=O)Nc1ccc(F)c(Oc2ccc3ncn(C4CC5(CCN(C6CCC(c7cc8c(cc7F)c(N7CCC(=O)NC7=O)nn8C)CC6F)CC5)C4)c(=O)c3c2)c1F (single isomer, unassigned) [Compound 185] | – | ** (<90% and >50%)
< 1000 | < 1000 | < 50 | 1000 to 10000 | – | – | – | – | CCN(C)S(=O)(=O)Nc1ccc(F)c(Oc2ccc3ncn([C@H]4COC5(CCC(N6CCC(c7ccc(NC8CCC(=O)NC8=O)cc7F)C(F)(F)C6)CC5)C4)c(=O)c3c2)c1C#N (single isomer, unassigned) [Compound 190] | < 50 | –
< 1000 | < 1000 | – | – | – | < 1000 | – | < 50 | CCN(C)S(=O)(=O)Nc1ccc(F)c(Oc2ccc3ncn([C@H]4COC5(CCC(N6CC7(CN(c8ccc(NC9CCC(=O)NC9=O)cc8F)C7)C6)CC5)C4)c(=O)c3c2)c1C#N (single isomer, unassigned) [Compound 191] | < 50 | –
< 1000 | < 1000 | – | – | ** (<90% and >50%) | > 10000 | – | – | CCN(C)S(=O)(=O)Nc1ccc(F)c(Oc2ccc3ncn([C@H]4COC5(CCC(N6CC7(CN(c8ccc(NC9CCC(=O)NC9=O)cc8F)C7)C6)CC5)C4)c(=O)c3c2)c1C#N (single isomer, unassigned) [Compound 192] | – | *** (<=50%)
< 1000 | > 10000 | 50 to 90 | – | – | > 10000 | – | – | CCN(C)S(=O)(=O)Nc1ccc(F)c(Oc2ccc3ncc(OCC4(O)CCN(C5CCC(c6cc7c(cc6F)c(N6CCC(=O)NC6=O)nn7C)CC5)CC4)nc3c2)c1C#N (single isomer, unassigned) [Compound 195, 7-[2-cyano-3-[[ethyl(methyl)sulfamoyl]amino]-6-fluoro-phenoxy]-2-[[1-[4-[3-(2,4-dioxohexahydropyrimidin-1-yl)-5-fluoro-1-methyl-indazol-6-yl]cyclohexyl]-4-hydroxy-4-piperidyl]methoxy]quinoxaline] | < 50 | –
< 1000 | < 1000 | – | – | – | < 1000 | *** (<=50%) | – | CCN(C)S(=O)(=O)Nc1ccc(F)c(Oc2ccc3ncc(OCC4(O)CCN(C5CCC(c6cc7c(cc6F)c(N6CCC(=O)NC6=O)nn7C)CC5)CC4)nc3c2)c1C#N (single isomer, unassigned) [Compound 196, 7-[2-cyano-3-[[ethyl(methyl)sulfamoyl]amino]-6-fluoro-phenoxy]-2-[[1-[4-[3-(2,4-dioxohexahydropyrimidin-1-yl)-5-fluoro-1-methyl-indazol-6-yl]cyclohexyl]-4-hydroxy-4-piperidyl]methoxy]quinoxaline] | – | ** (<90% and >50%)
< 1000 | < 1000 | < 50 | 1000 to 10000 | – | – | – | – | CCN(C)S(=O)(=O)Nc1ccc(F)c(C(=O)c2ccc3ncn(C4CC5(CCN(C6CCC(c7ccc(NC8CCC(=O)NC8=O)cc7F)CC6)CC5)C4)c(=O)c3c2)c1F (single isomer, unassigned) [Compound 199, 3-[7-[4-[4-[(2,6-dioxo-3-piperidyl)amino]-2-fluoro-phenyl]cyclohexyl]-7-azaspiro[3.5]nonan-2-yl]-6-[3-[[ethyl(methyl)sulfamoyl]amino]-2,6-difluoro-benzoyl]-4-oxo-quinazoline] | 50 to 90 | –
< 1000 | < 1000 | – | – | – | 1000 to 10000 | *** (<=50%) | – | CCN(C)S(=O)(=O)Nc1ccc(F)c(C(=O)c2ccc3ncn(C4CC5(CCN(C6CCC(c7ccc(NC8CCC(=O)NC8=O)cc7F)CC6)CC5)C4)c(=O)c3c2)c1F (single isomer, unassigned) [Compound 200, 3-[7-[4-[4-[(2,6-dioxo-3-piperidyl)amino]-2-fluoro-phenyl]cyclohexyl]-7-azaspiro[3.5]nonan-2-yl]-6-[3-[[ethyl(methyl)sulfamoyl]amino]-2,6-difluoro-benzoyl]-4-oxo-quinazoline] | – | ** (<90% and >50%)
< 1000 | < 1000 | < 50 | 1000 to 10000 | – | – | – | – | CCN(C)S(=O)(=O)Nc1ccc(F)c(Oc2ccc3ncn(CC4(F)CCN(C5CCC(c6cc7c(cc6F)c(N6CCC(=O)NC6=O)nn7C)CC5)CC4)c(=O)c3c2)c1C#N (single isomer, unassigned) [Compound 201, 6-[2-cyano-3-[[ethyl(methyl)sulfamoyl]amino]-6-fluoro-phenoxy]-3-[[1-[4-[3-(2,4-dioxohexahydropyrimidin-1-yl)-5-fluoro-1-methyl-indazol-6-yl]cyclohexyl]-4-fluoro-4-piperidyl]methyl]-4-oxo-quinazoline] | 50 to 90 | –
